Measured values from patent US20260285850A1, “SUBSTITUTED OXAZOLIDINONES AND IMIDAZOLINONES AS HERBICIDES” (FMC CORPORATION, priority 2023, published 2026).

Assays:
Assay type in all cases: in vivo
[1] = test system: sedge, umbrella (small-flower umbrella sedge, Cyperus difformis); assay: Test B flooded paddy test, visual plant response rating 0-100; settings: 250 g ai/ha, Flood, applied to paddy water, evaluated after 13 days
Summary of the method: (§1)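 Plants were grown to the 2-leaf stage, then pots were flooded to 3 cm above the soil and compound was applied directly to the paddy water, with that depth kept throughout.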

[2] = test system: ducksalad (Heteranthera limosa); assay: as above; settings: 250 g ai/ha, Flood, applied to paddy water, evaluated after 13 days
Summary of the method: as §1

rice (Oryza sativa) = assay: as above; settings: 250 g ai/ha, Flood, applied to paddy water, evaluated after 13 days
Summary of the method: as §1

[3] = test system: barnyardgrass (Echinochloa crusgalli); assay: as above; settings: 250 g ai/ha, Flood, applied to paddy water, evaluated after 13 days
Summary of the method: as §1

kochia (Bassia scoparia) [4] = assay: Test A preemergence soil spray, visual injury rating 0-100; settings: 10 days
Summary of the method: (§2)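 Preemergence directed soil spray or postemergence spray (2-10 cm, 1-2 leaf); loam/sand mix; compound in non-phytotoxic solvent + surfactant. Greenhouse, 10 d. Visual injury vs untreated, 0 = none, 100 = complete control.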

[5] = test system: blackgrass (Alopecurus myosuroides); assay: as above; settings: 10 days
Summary of the method: as §2

[6] = test system: oat, wild (wild oat, Avena fatua); assay: as above; settings: 10 days
Summary of the method: as §2

soybean (Glycine max) [7] = assay: as above; settings: 10 days
Summary of the method: as §2

[8] = test system: barnyardgrass (Echinochloa crus-galli); assay: as above; settings: 10 days
Summary of the method: as §2

[9] = test system: ragweed (common ragweed, Ambrosia artemisiifolia); assay: as above; settings: 10 days
Summary of the method: as §2

corn (Zea mays) [10] = assay: as above; settings: 10 days
Summary of the method: as §2

[11] = test system: ryegrass, Italian (italian ryegrass, Lolium multiflorum); assay: as above; settings: 10 days
Summary of the method: as §2

[12] = test system: wheat (Triticum aestivum); assay: as above; settings: 10 days
Summary of the method: as §2

[13] = test system: palmer (palmer amaranth, palmer pigweed, Amaranthus palmeri); assay: as above; settings: 10 days
Summary of the method: as §2

[14] = test system: green foxtail (Setaria viridis); assay: as above; settings: 10 days
Summary of the method: as §2

kochia (Bassia scoparia) [15] = assay: Test A postemergence application, visual injury rating 0-100
Summary of the method: as §2

[16] = test system: blackgrass (Alopecurus myosuroides); assay: as above
Summary of the method: as §2

[17] = test system: oat, wild (wild oat, Avena fatua); assay: as above
Summary of the method: as §2

soybean (Glycine max) [18] = assay: as above
Summary of the method: as §2

[19] = test system: horseweed (Erigeron canadensis); assay: as above
Summary of the method: as §2

[20] = test system: galium (catchweed bedstraw, Galium aparine); assay: as above
Summary of the method: as §2

[21] = test system: barnyardgrass (Echinochloa crus-galli); assay: as above
Summary of the method: as §2

[22] = test system: ragweed (common ragweed, Ambrosia artemisiifolia); assay: as above
Summary of the method: as §2

corn (Zea mays) [23] = assay: as above
Summary of the method: as §2

[24] = test system: ryegrass, Italian (italian ryegrass, Lolium multiflorum); assay: as above
Summary of the method: as §2

[25] = test system: wheat (Triticum aestivum); assay: as above
Summary of the method: as §2

[26] = test system: palmer (palmer amaranth, palmer pigweed, Amaranthus palmeri); assay: as above
Summary of the method: as §2

[27] = test system: green foxtail (Setaria viridis); assay: as above
Summary of the method: as §2

[28] = 62 g ai/ha, 0 = no effect, 100 = complete control
[29] = 62 g ai/ha, postemergence, 10 days, 0 = no effect, 100 = complete control
[30] = Postemergence, 16 g ai/ha, greenhouse 10 days, 0 no effect, 100 complete control

SMILES: CC(C)COC(=O)C1=CCC(NC(=O)C2(C)CN(c3cc(F)cc(F)c3)C(=O)O2)C1 (stereo not shown) [Compound 97]
- Plant response rating, Sedge, Umbrella (0 to 100 scale, 0 is no effect and 100 is complete control) [1]: 0
- Plant response rating, Ducksalad (0 to 100 scale, 0 is no effect and 100 is complete control) [2]: 0
- Plant response rating, Rice (0 to 100 scale, 0 is no effect and 100 is complete control) (rice (Oryza sativa)): 0
- Plant response rating, Barnyardgrass (0 to 100 scale, 0 is no effect and 100 is complete control) [3]: 0
- Kochia plant response rating (kochia (Bassia scoparia) [4]; 16 g ai/ha, 0 to 100 scale): 0
- Kochia plant response rating (0-100) (kochia (Bassia scoparia) [4]; [28]): 0
- Blackgrass plant response rating ([5]; 16 g ai/ha, 0 to 100 scale): 0
- Blackgrass plant response rating (0-100) [5, 28]: 0
- Oat, Wild plant response rating ([6]; 16 g ai/ha, 0 to 100 scale): 0
- Oat, Wild plant response rating (0-100) [6, 28]: 0
- Soybean plant response rating (soybean (Glycine max) [7]; 16 g ai/ha, 0 to 100 scale): 0
- Soybean plant response rating (0-100) (soybean (Glycine max) [7]; [28]): 0
- Barnyardgrass plant response rating ([8]; 16 g ai/ha, 0 to 100 scale): 0
- Barnyardgrass plant response rating (0-100) [8, 28]: 0
- Ragweed plant response rating ([9]; 16 g ai/ha, 0 to 100 scale): 0
- Ragweed plant response rating (0-100) [9, 28]: 0
- Corn plant response rating (corn (Zea mays) [10]; 16 g ai/ha, 0 to 100 scale): 0
- Corn plant response rating (0-100) (corn (Zea mays) [10]; [28]): 0
- Ryegrass, Italian plant response rating ([11]; 16 g ai/ha, 0 to 100 scale): 0
- Ryegrass, Italian plant response rating (0-100) [11, 28]: 0
- Wheat plant response rating ([12]; 16 g ai/ha, 0 to 100 scale): 0
- Wheat plant response rating (0-100) [12, 28]: 10
- Pigweed, Palmer plant response rating ([13]; 16 g ai/ha, 0 to 100 scale): 0
- Pigweed, Palmer plant response rating (0-100) [13, 28]: 0
- Foxtail, Green plant response rating ([14]; 16 g ai/ha, 0 to 100 scale): 20
- Foxtail, Green plant response rating (0-100) [14, 28]: 60
- Kochia plant response rating (0-100) (kochia (Bassia scoparia) [15]; [29]): 70
- Kochia plant response rating (0 to 100 scale) (kochia (Bassia scoparia) [15]; [30]): 30
- Blackgrass plant response rating (0-100) [16, 29]: 0
- Blackgrass plant response rating (0 to 100 scale) [16, 30]: 0
- Oat, Wild plant response rating (0-100) [17, 29]: 0
- Oat, Wild plant response rating (0 to 100 scale) [17, 30]: 0
- Soybean plant response rating (0-100) (soybean (Glycine max) [18]; [29]): 40
- Soybean plant response rating (0 to 100 scale) (soybean (Glycine max) [18]; [30]): 0
- Horseweed plant response rating (0-100) [19, 29]: 0
- Horseweed plant response rating (0 to 100 scale) [19, 30]: 0
- Galium plant response rating (0-100) [20, 29]: 60
- Galium plant response rating (0 to 100 scale) [20, 30]: 20
- Barnyardgrass plant response rating (0-100) [21, 29]: 20
- Barnyardgrass plant response rating (0 to 100 scale) [21, 30]: 0
- Ragweed plant response rating (0-100) [22, 29]: 20
- Ragweed plant response rating (0 to 100 scale) [22, 30]: 0
- Corn plant response rating (0-100) (corn (Zea mays) [23]; [29]): 0
- Corn plant response rating (0 to 100 scale) (corn (Zea mays) [23]; [30]): 0
- Ryegrass, Italian plant response rating (0-100) [24, 29]: 0
- Ryegrass, Italian plant response rating (0 to 100 scale) [24, 30]: 0
- Wheat plant response rating (0-100) [25, 29]: 10
- Wheat plant response rating (0 to 100 scale) [25, 30]: 0
- Pigweed, Palmer plant response rating (0-100) [26, 29]: 10
- Pigweed, Palmer plant response rating (0 to 100 scale) [26, 30]: 0
- Foxtail, Green plant response rating (0-100) [27, 29]: 0
- Foxtail, Green plant response rating (0 to 100 scale) [27, 30]: 0
